Experimental data: paper PMC12592502, “Unraveling the mechanisms behind the enhanced efficacy of β-lactam-based sideromycins” (Communications Biology, 2025)
In brackets after ≈: the same amount, converted by molar mass. Like-named read-outs stand apart in the source and are kept apart here.

How the values were obtained:
PBP1a = molecular target: T1, PBP1a (Pseudomonas aeruginosa, UniProt Q07806); experiment: Membrane PBP binding assay, competition with Bocillin FL
T1 construct: using bacterial membranes as the source of PBPs; endogenous in cells; host or cells: P. aeruginosa ATCC 27853 membrane preparation
T1 sequence (Q07806 whole entry): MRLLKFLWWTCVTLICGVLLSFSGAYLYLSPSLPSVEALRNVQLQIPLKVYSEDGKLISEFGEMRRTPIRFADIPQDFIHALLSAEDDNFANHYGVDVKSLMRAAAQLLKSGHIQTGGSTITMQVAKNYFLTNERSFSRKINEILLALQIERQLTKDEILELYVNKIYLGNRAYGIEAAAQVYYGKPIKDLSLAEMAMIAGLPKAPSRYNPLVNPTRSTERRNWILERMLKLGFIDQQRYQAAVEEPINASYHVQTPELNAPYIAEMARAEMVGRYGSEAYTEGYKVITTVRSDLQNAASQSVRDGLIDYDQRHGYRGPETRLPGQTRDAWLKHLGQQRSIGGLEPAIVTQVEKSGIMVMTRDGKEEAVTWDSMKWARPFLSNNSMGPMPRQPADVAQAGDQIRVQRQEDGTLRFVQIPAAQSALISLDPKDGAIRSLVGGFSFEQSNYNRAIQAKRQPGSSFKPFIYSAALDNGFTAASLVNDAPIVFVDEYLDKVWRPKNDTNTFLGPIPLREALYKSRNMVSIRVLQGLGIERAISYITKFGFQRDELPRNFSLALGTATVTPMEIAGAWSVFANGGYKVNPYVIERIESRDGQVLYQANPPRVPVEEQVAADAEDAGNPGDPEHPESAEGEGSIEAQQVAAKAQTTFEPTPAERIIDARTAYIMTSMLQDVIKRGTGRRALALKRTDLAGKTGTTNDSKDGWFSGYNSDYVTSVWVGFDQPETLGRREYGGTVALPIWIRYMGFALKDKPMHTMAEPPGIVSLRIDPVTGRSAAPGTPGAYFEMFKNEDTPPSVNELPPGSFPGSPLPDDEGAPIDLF
Method: (§1) Membrane extracts containing PBPs were obtained as described above. Briefly, all species were grown in 1 L of TSB until the OD600 reached 0.9. The washed pellet was incubated with lysozyme (400 μg/mL), DNase (10 μg/mL) RNase(10 μg/mL) and anti-protease cocktail (200 mg/20 mL). Lysis was done with a French press (20,000 psi) and membrane protein were pelleted by ultracentrifugation steps (100,000 × g). The pellet was suspended in a minimal volume (300–500 μL) of KP 0.05 M buffer at pH 7. The protein concentration in the membrane preparations was determined with the Micro BCA TM Protein Assay Kit (Thermo Fisher Scientific, Rockford, IL) using bovine serum albumin as a standard.
(§2) The PBP binding assay was done as described previously[36],[56],[57]. For each antibiotic concentration tested, a quantity of 25 to 40 μg of membrane preparation was used as the source of PBPs, depending on the species. For the purified PaPBP3, 150 ng was used in the assay. First, increasing concentrations of the test antibiotic was added to the membrane or purified PaPBP3 preparations and incubated for 10 min at 30 °C. The reporter molecule Bocillin FL was then added at 12.5 μM for the membrane PBPs preparations and at 500 nM for the pure PaPBP3 samples for an additional 20 min at 30 °C. All reactions were stopped with the addition of the Laemmli-loading buffer (Bio-Rad) containing fresh β-mercaptoethanol (Sigma). All reactions were then heated at 100°C for 3 min before migration on SDS-polyacrylamide discontinuous gel system (7.5% stacking and 10% separating). Control samples without Bocillin FL were also included to highlight autofluorescent proteins that are not PBPs.
(§3) To be able to visualize labeled PBPs after electrophoresis, gels were rinsed in water and fixed in a solution of 50% methanol and 7% acetic acid for 30 min. The fluorescent images of gels were obtained with the Typhoon FLA 9500 instrument (GE-Healthcare Bio-Sciences Inc., Baie-d’Urfé, QC, CA) using a 473 nm excitation wavelength. To obtain quantifiable data, the software Quantity One 1D analysis was used (version 4.6.6; Bio-Rad Laboratories, Richmond, CA). The volume (intensity × constant area) of each PBP was measured. […] All IC50 data were obtained from at least two independent PBP binding assays using two different sets of compound concentrations using a linear regression. The PBP profiles were confirmed, and the PBP numbering were determined using published data and individual molecular weights. […] For example, amdinocillin (Sigma) was used for PBP2 identification. […] The IC50 for PBP 2 of P. aeruginosa was measured by including the SDS-PAGE comigrating autofluorescent protein in the background, as done previously.

PBP2 [1] = molecular target: T2, PBP2 (Pseudomonas aeruginosa, UniProt Q9X6V3); experiment: as above
T2 construct: using bacterial membranes as the source of PBPs; endogenous in cells; host or cells: P. aeruginosa ATCC 27853 membrane preparation
T2 sequence (Q9X6V3 1-646): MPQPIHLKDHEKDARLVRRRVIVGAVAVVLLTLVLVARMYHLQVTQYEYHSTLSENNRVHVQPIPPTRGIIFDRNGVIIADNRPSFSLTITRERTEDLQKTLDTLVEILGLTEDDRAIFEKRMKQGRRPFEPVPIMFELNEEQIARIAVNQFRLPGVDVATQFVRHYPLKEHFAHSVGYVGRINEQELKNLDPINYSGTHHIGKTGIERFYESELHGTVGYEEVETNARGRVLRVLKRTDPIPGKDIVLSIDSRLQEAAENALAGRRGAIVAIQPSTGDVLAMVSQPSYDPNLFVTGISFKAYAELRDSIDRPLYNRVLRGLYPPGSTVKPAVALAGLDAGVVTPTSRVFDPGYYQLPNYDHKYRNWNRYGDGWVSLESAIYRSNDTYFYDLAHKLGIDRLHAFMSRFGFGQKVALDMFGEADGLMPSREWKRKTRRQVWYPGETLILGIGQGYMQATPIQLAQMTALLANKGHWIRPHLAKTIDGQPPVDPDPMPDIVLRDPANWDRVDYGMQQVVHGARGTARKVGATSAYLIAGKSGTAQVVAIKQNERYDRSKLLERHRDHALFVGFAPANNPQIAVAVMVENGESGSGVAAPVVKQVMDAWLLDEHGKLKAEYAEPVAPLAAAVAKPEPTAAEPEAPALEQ
Method: as §1, §2, §3

PBP3 = molecular target: T3, PBP3 (Pseudomonas aeruginosa, UniProt G3XD46); experiment: as above; conditions: for IC50 value ratio βL/SID-βL, PBP3: P. aeruginosa ATCC 27853, membrane
T3 construct: using bacterial membranes as the source of PBPs; endogenous in cells; host or cells: P. aeruginosa ATCC 27853 membrane preparation
T3 sequence (G3XD46 whole entry): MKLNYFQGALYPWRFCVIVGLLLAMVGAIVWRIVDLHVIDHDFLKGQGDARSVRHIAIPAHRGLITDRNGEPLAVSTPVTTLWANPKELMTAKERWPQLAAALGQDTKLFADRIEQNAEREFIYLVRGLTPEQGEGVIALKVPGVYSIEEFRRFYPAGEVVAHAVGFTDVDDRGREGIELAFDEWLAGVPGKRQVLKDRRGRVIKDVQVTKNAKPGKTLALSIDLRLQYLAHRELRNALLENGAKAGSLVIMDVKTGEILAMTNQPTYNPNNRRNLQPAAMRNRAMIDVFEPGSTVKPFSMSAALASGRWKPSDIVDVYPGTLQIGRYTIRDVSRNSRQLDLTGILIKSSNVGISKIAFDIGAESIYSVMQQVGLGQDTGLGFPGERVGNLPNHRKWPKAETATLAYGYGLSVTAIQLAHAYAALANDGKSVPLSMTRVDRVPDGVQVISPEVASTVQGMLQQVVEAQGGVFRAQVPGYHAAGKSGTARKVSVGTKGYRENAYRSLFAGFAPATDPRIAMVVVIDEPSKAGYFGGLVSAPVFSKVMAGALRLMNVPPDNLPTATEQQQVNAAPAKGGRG
Method: as §1, §2, §3

PBP1a/1b = experiment: as above; conditions: K. pneumoniae ATCC 13883 membranes
Method: as §1, §2, §3

PBP2 [2] = molecular target: PBP2 (Klebsiella pneumoniae, UniProt A6T696); experiment: as above; design: species or system K. pneumoniae ATCC 13883
PBP2 (Klebsiella pneumoniae, UniProt A6T696), sequence (A6T696 entry or part of it): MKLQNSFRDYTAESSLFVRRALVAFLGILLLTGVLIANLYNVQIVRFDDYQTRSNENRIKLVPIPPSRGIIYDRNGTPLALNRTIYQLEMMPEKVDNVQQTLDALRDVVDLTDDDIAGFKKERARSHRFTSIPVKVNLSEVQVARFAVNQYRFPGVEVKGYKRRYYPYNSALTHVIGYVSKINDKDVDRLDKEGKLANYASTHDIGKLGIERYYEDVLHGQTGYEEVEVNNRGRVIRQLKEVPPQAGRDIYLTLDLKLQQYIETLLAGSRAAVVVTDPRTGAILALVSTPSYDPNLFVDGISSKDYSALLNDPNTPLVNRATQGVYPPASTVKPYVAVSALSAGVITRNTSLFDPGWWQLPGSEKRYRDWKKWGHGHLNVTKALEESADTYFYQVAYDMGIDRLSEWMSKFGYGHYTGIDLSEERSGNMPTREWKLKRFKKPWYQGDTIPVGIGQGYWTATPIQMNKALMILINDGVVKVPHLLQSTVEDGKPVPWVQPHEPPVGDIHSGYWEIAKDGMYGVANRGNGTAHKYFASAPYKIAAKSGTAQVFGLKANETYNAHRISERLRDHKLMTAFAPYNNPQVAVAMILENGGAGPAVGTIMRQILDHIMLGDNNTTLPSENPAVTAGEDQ
Method: as §1, §2, §3

E. coli ΔampC = experiment: MIC, Keio mutant; assay type: cell-based, Escherichia coli
Method: All bacterial strains (see description and sources Table S1) were stored at −80 °C, and grown on tryptone soya agar (TSA) at 35 °C. The iron-deprived (ID)-MHBCA (cation-adjusted Muller-Hinton Broth, Becton Dickinson, Mississauga, ON, Canada) medium was prepared as reported by refs. [21],[50]. Briefly, MHBCA was treated with 10% Chelex® 50-100 mesh (Sigma) and stirred for 6 h at room temperature. The resin was removed by filtration. Divalent Ca^2+ (CaCl2), Mg^2+ (MgCl2), and Zn^2+(ZnSO4), were then added in the iron-depleted medium at 22, 12, and 1 μg/ml respectively. Finally, the pH was adjusted to 7.3, and the medium was sterilized with a 0.2-μm filter. Regular MHBCA (i.e., not treated with Chelex®) was used to compare the inhibitory activity of conjugates in iron-sufficient conditions. The resin used for Chelex treatment was always fresh and had never been regenerated, ensuring consistent iron removal.
(§4) Minimal inhibitory concentrations (MICs) were performed using a broth microdilution technique according to the Clinical and Laboratory Standards Institute (CLSI) guidelines. MICs were determined in MHBCA and in ID-MHBCA. To check the impact of β-lactamases, MICs in the presence of a β-lactamase inhibitor were also determined. The inhibitor was homogenized at 2X the final concentration and added to the bacterial inoculum just before distributing cells into the wells containing the drug dilutions. The final concentration of each inhibitor was 4 μg/mL for clavulanic acid (tested against K. pneumoniae) and 200 μg/mL for 3-aminophenylboronic acid (tested against P. aeruginosa and A. baumannii).

E. coli ΔacrAB = experiment: MIC, efflux pump mutant; assay type: cell-based, Escherichia coli
Method: as §4

[3] = P. aeruginosa ATCC 27853 membranes, read-out: IC50 PBP1a
[4] = P. aeruginosa ATCC 27853 membranes, read-out: IC50 PBP2
[5] = P. aeruginosa ATCC 27853 membranes, read-out: IC50 PBP3
[6] = K. pneumoniae ATCC 13883 membranes, read-out: IC50 PBP2

Row | SMILES | IC50 (PBP1a; [3]) [µM] | IC50 (PBP2 [1]; [4]) [µM] | IC50 (PBP3; [5]) [µM] | IC50 (PBP1a/1b) [µM] | IC50 (PBP2 [2]; read-out: IC50 PBP2, K. pneumoniae ATCC 13883 membranes) [µM] | MIC (E. coli ΔampC; Escherichia coli, ID-MHBCA) [µM] | MIC (E. coli ΔampC; Escherichia coli, MHBCA) [µM] | MIC (E. coli ΔacrAB; Escherichia coli) [µM] | IC50 (PBP2 [2]; [6]) [µM] | MIC (E. coli ΔampC; ID-MHBCA) [µM] | MIC (E. coli ΔampC; MHBCA) [µM] | MIC (E. coli ΔacrAB; ΔacrAB) [µM] | IC50 value ratio βL/SID-βL, PBP3 (PBP3) | IC50 (PBP2 [2]) [µM] | IC50 (PBP1a) [µM] | IC50 (PBP2 [1]) [µM] | IC50 (PBP3) [µM]
1 | O=C(CCC(=O)N(CCCCNC(=O)c1cccc(O)c1O)CCCNC(=O)c1cccc(O)c1O)NCCCCCN(O)C(=O)CCCC(=O)NC(C(=O)NC1C(=O)N2C(C(=O)O)=C(Cl)CSC12)c1ccccc1 (centres unmarked) [MCEF, mixed ligand bis-catechol-mono-hydroxamate-cefaclor] | 0.39 ± 0.35 | 6.74 ± 0.03 | 2.01 ± 0.48 | 0.35 ± 0.02 | 16.8 ± 0.3 | > 200 | 13 (≈ 14.1 µg/mL) | 3.1 (≈ 3.35 µg/mL) |  |  |  |  |  |  |  |  | 
2 | N[C@@H](C(=O)N[C@@H]1C(=O)N2C(C(=O)O)=C(Cl)CC[C@H]12)c1ccccc1 [LOR, loracarbef, reference compound] | > 50 | > 50 | > 50 | 4.5 ± 2.1 |  |  |  |  | > 50 | 3.1 (≈ 1.08 µg/mL) | 3.1 (≈ 1.08 µg/mL) | 3.1 (≈ 1.08 µg/mL) |  |  |  |  | 
3 | O=C(CN(CCCCNC(=O)c1cccc(O)c1O)C(=O)c1cccc(O)c1O)NC(C(=O)NC1C(=O)N2C(C(=O)O)=C(Cl)CCC12)c1ccccc1 (centres unmarked) [BLOR, bis-catechol (azotochelin)-loracarbef] | 0.58 ± 0.04 | 4.8 ± 3 | 3.2 ± 0.1 | 0.43 ± 0.17 |  | 0.006 (≈ 0.0045 µg/mL) | 0.006 (≈ 0.0045 µg/mL) | 0.012 (≈ 0.009 µg/mL) | 33.9 ± 5.6 |  |  |  | > 16 |  |  |  | 
4 | N[C@@H](C(=O)N[C@@H]1C(=O)N2C(C(=O)O)=C(Cl)CS[C@H]12)c1ccccc1 [CEF, cefaclor, reference compound] | 33.9 ± 6.9 | > 50 | 39 ± 1.5 | 7.9 ± 1.5 |  | 3.1 (≈ 1.14 µg/mL) | 3.1 (≈ 1.14 µg/mL) | 6.3 (≈ 2.32 µg/mL) |  |  |  |  |  | > 50 |  |  | 
5 | CC1(C)S[C@@H]2[C@H](NC(=O)[C@H](N)c3ccccc3)C(=O)N2[C@H]1C(=O)O [AMP, ampicillin, reference compound] |  |  |  | 8 ± 1 |  | 6.3 (≈ 2.2 µg/mL) | 6.3 (≈ 2.2 µg/mL) | 6.3 (≈ 2.2 µg/mL) | 9.2 ± 1.9 |  |  |  |  |  | 1.9 ± 1.5 | > 50 | 0.24 ± 0.08
6 | CC1(C)SC2C(NC(=O)C(NC(=O)CN(CCCCNC(=O)c3cccc(O)c3O)C(=O)c3cccc(O)c3O)c3ccccc3)C(=O)N2C1C(=O)O (centres unmarked) [BAMP, bis-catechol (azotochelin)-ampicillin] | 1.4 ± 0.7 | > 50 | 0.16 ± 0.01 | 4.24 ± 0.07 |  | 0.012 (≈ 0.009 µg/mL) | 0.024 (≈ 0.018 µg/mL) | 0.05 (≈ 0.0375 µg/mL) | 5.1 ± 2.1 |  |  |  | 1.5 |  |  |  | 
